Reference: the NIST ThermoML archive (doi:10.1016/j.jct.2013.12.019)
± gives the expanded uncertainty stated by the source.

Experiment: mn = molality of the nth substance listed, in mol/kg
Conditions: 101 kPa, Liquid, Alternating current cell with electrodes

CCCCCCCCCCCC[N+](C)(C)C.[Br-] [dodecyltrimethylammonium bromide] + O
electrical conductivity [S/m]
Conditions | 293.15 K | 298.15 K | 303.15 K | 308.15 K | 313.15 K
m1 = 0.0015 | 0.014 ± 0.0003 | 0.0143 ± 0.00029 | 0.0144 ± 0.00031 | 0.0153 ± 0.0004 | 0.0169 ± 0.00046
m1 = 0.003 | 0.027 ± 0.0005 | 0.0273 ± 0.0006 | 0.0278 ± 0.0006 | 0.0286 ± 0.0007 | 0.032 ± 0.0009
m1 = 0.0045 | 0.0397 ± 0.0009 | 0.0412 ± 0.0008 | 0.0413 ± 0.0008 | 0.042 ± 0.001 | 0.0469 ± 0.0013
m1 = 0.006 | 0.0524 ± 0.0011 | 0.0535 ± 0.0011 | 0.055 ± 0.0011 | 0.0551 ± 0.0013 | 0.061 ± 0.0017
m1 = 0.0075 | 0.0645 ± 0.0014 | 0.0669 ± 0.0014 | 0.0675 ± 0.0014 | 0.068 ± 0.0016 | 0.0759 ± 0.0021
m1 = 0.009 | 0.0763 ± 0.0016 | 0.0784 ± 0.0016 | 0.0798 ± 0.0016 | 0.0808 ± 0.0019 | 0.0895 ± 0.0025
m1 = 0.0105 | 0.088 ± 0.0019 | 0.091 ± 0.0018 | 0.0908 ± 0.0018 | 0.0927 ± 0.0022 | 0.103 ± 0.0029
m1 = 0.012 | 0.0995 ± 0.0021 | 0.102 ± 0.0021 | 0.103 ± 0.0021 | 0.105 ± 0.0025 | 0.116 ± 0.0032
m1 = 0.0135 | 0.111 ± 0.0023 | 0.113 ± 0.0023 | 0.114 ± 0.0023 | 0.117 ± 0.0027 | 0.129 ± 0.0033
m1 = 0.015 | 0.121 ± 0.0025 | 0.123 ± 0.0025 | 0.126 ± 0.0026 | 0.128 ± 0.0028 | 0.137 ± 0.0033
m1 = 0.0165 | 0.13 ± 0.0027 | 0.132 ± 0.0027 | 0.132 ± 0.0027 | 0.134 ± 0.0029 | 0.144 ± 0.0035
m1 = 0.018 | 0.136 ± 0.0027 | 0.137 ± 0.0027 | 0.137 ± 0.0028 | 0.139 ± 0.003 | 0.149 ± 0.0035
m1 = 0.0195 | 0.139 ± 0.0028 | 0.14 ± 0.0028 | 0.141 ± 0.0028 | 0.142 ± 0.0031 | 0.152 ± 0.0036
m1 = 0.021 | 0.142 ± 0.0028 | 0.142 ± 0.0029 | 0.143 ± 0.0029 | 0.145 ± 0.0032 | 0.156 ± 0.0037
m1 = 0.0225 | 0.145 ± 0.0029 | 0.145 ± 0.0029 | 0.146 ± 0.0029 | 0.148 ± 0.0032 | 0.16 ± 0.0039
m1 = 0.024 | 0.147 ± 0.003 | 0.148 ± 0.003 | 0.149 ± 0.003 | 0.151 ± 0.0033 | 0.162 ± 0.0039
m1 = 0.0255 | 0.15 ± 0.003 | 0.151 ± 0.003 | 0.151 ± 0.003 | 0.154 ± 0.0034 | 0.165 ± 0.0039
m1 = 0.027 | 0.153 ± 0.0031 | 0.154 ± 0.0031 | 0.154 ± 0.0031 | 0.158 ± 0.0034 | 0.168 ± 0.004
m1 = 0.0285 | 0.156 ± 0.0031 | 0.156 ± 0.0031 | 0.156 ± 0.0031 | 0.16 ± 0.0035 | 0.171 ± 0.0041
m1 = 0.03 | 0.159 ± 0.0032 | 0.159 ± 0.0032 | 0.16 ± 0.0032 | 0.163 ± 0.0035 | 0.173 ± 0.0041
